Reference: US8242142B2, “Cyclohexylamines, phenylamines and uses thereof” (The Regents of the University of California, priority 2008, dated 2012)
Where two headings read alike, the source gives them in different places.

Assays:
mouse Smo = test: FRET analysis of Smo conformation in NIH-3T3 cells; format: cell-based; conditions: for basal FRET of mSmo-CFPN/mSmoYFPN (N-termini): SANT74 or SANT75 50 nM, SAG 100 nM, with or without Shh; for Shh-induced decrease in FRET from mSmo-CFPL2YFPC (FRETL2C) / Shh-induced increase in FRET between mSmo-CFPC and mSmo-YFPC (FRETC): 50 nM, with Shh
Description: FRET analysis using confocal microscopy. Effect of SAG, compound 21a (SANT74), and compound 21b (SANT75) on mSmo conformational change was tested by FRET in NIH-3T3 cells that were co-transfected with mouse Smo CFP and Smo YFP reporter constructs. The construction of mSmo-CFP^C/YFP^C, mSmo-CFP^N/YFP^N, and mSmo-CFP^L2YFP^C was performed as described in Zhao Y. Tong C, Jiang J., “Hedgehog regulates smoothened activity by inducing a conformational switch” Nature, 2007; 450:252-8; incorporated herein by reference. NIH-3T3 cells were cultured in DMEM containing 10% bovine calf serum and antibiotics PS at 5% CO2 in a humidified incubator. Transfection was carried out using FuGENE6 (Roche). For FRET analysis of cultured cells, CFP- and YFP-tagged constructs were transfected into NIH-3T3 cells. Transfected cells were treated in the presence of compounds with or without Shh-conditioned medium. Cells were washed with PBS, fixed with 4% formaldehyde for 20 min, and mounted on slides in 80% glycerol. Fluorescence signals were acquired with the 100× objective of a Zeiss LSM510 confocal microscope. CFP was excited by 458 nm light and the emission was collected through BP 480-520 nm filter. YFP was excited by 514 nm light and the emission was collected through BP 535-590 nm filter. CFP signal was obtained once before and once after photobleaching YFP using the full power of the 514 nm laser line for 1-2 min at the top half of each cell, leaving the bottom half unbleached that serves as an internal control. The intensity of CFP was analyzed using the Metamorph software (Universal Imaging Corn). Energy transfer efficiency was calculated using the formula: FRET %=(CFPAP−CFPBP/CFPAP)×100. Each data set was based on 10-15 individual cells. In each cell, four to five regions of interest in the photobleached area were selected for analysis.

[1] = system: Gli:GFP expression (Hh signaling); test: Gli:GFP transgenic zebrafish embryo assay; format: in vivo; conditions: for concentration at which inhibition of Hh signaling starts to show: zebrafish embryo assays; for concentration that blocks/abolishes Gli:GFP expression: zebrafish embryos
Text: Generation of Gli:GFP transgenic zebrafish. […] The PCR product digested with Nhe1 and Mlu1 was ligated to GFP and used to generate transgenic zebrafish by microinjection.
Image acquisition and analysis.

Stability remarks = format: physicochemical; conditions: in our studies
[2] = system: Hh signal pathway target genes Ptch1 and Gli1 mRNA; test: Quantitative real-time PCR of Hh target genes in zebrafish embryos; format: in vivo; conditions: dose dependent; for Ptch1 mRNA level: FIG. 1A; for Gli1 mRNA level: FIG. 1B
Description: Quantitative Real-time PCR. The larvae were exposed to different concentrations of small molecules from 2 hpf. Total RNA was extracted from the embryos at 36 hpf using the Trizol kit (Ambion, Austin, Tex.) according to the manufacturer's instructions. Three groups per treatment, each composed of 20 embryos, were assayed using SYBRGreen qPCR kit by real-time PCR (ABI Prism 7700 Sequence Detector System).

zebrafish embryos = test: Zebrafish embryo phenotype analysis (insulin:GFP beta cells, Flk:GFP intersegmental vessels, somites); format: in vivo; conditions: for off-target toxicity: whole zebrafish embryo assays
Description: If SANT74 and SANT75 are specific inhibitors of Hh treating, zebrafish embryos should only produce these well-characterized phenotypes. […] Using these criteria, the specificity of SANT74 and 75 in zebrafish was evaluated.
As a utility of this new inhibitor, timing requirement of Hh for normal somite formation and sprouting of ISV was tested by adding and washing away SANT74 at various developmental stages followed by phenotypic analysis.

Shh-LIGHT2 cells = test: Compound activities in Shh-LIGHT2 cells (Gli-dependent luciferase reporter); format: cell-based; conditions: Shh Light2, Shh-N-conditioned medium, luciferase reporter activity
Description: Shh-LIGHT2 cells (ATCC CRL-2795), a NIH-3T3 cell line stably incorporating Gli-dependent firefly luciferase and thyrmidine kinase promoter-driven Renilla luciferase reporters (Taipale J, Chen J K, Cooper M K, Wang B. Mann R K, Milenkovic L. et al. “Effects of oncogenic mutations in Smoothened and Patched can be reversed by cyclopamine” Nature 2000; 406:1005-9; incorporated herein by reference), were cultured to confluency in 96-well plates using DMEM medium containing 10% calf serum, 100 U/mL penicillin, and 100 μg/mL streptomycin. The cells were then treated with various concentrations of the compounds in DMEM containing 0.5% calf serum and a 1:20 dilution of Shh-N-conditioned medium (Chen J. K., Taipale J. Young K. E., Maiti T Beachy P. A., “Small molecule modulation of Smoothened activity” Proc. Natl. Acad. Sci. U.S.A., 2002; 99:14071-6; incorporated herein by reference). The cells were cultured for an additional 30 h under standard conditions. Firefly and Renilla luciferase activities were measured on a Veritas luminometer (Turner Biosystems) using a dual luciferase kit (Promega) according to the manufacturers' protocols.

mouse Smoothened = target: T1, mouse Smoothened (Mus musculus, UniProt P56726); test: Smo-binding assay (BODIPY-cyclopamine competition, HEK 293T cells); conditions: 5 nM BODIPY-cyclopamine, Smo-overexpressing HEK 293T cells
T1 construct: expressed in transfected cells; host or cells: HEK 293T
Description: Smo-binding assay. HEK 293T cells were cultured in DMEM containing 10% fetal bovine serum, 100 U/mL penicillin, and 100 μg/mL streptomycin to 50% confluency in 96-well plates and then transfected with a CMV promoter-driven mouse Smoothened-Myc3 expression construct (100 ng cDNA/well) with Fugene 6 (Roche) according to the manufacturer's protocols. After 12 h the cells were incubated with DMEM containing 0.5% fetal bovine serum, 10 μM Hoechst 33342, 5 nM BODIPY-labeled cyclopamine (Chen J. K., Taipale J, Cooper M. K., Beachy P. A., “Inhibition of Hedgehog signaling by direct binding of cyclopamine to Smoothened” Genes Dev., 2002; 16:2743-8; incorporated herein by reference), and various concentrations of compound 75 for 1 h. The cells were washed two times with PBS buffer and then imaged in DMEM containing 0.5% fetal bovine serum using an ImageXpress 5000A microscopy system (Molecular Devices).

T1 sequence (P56726 33-793): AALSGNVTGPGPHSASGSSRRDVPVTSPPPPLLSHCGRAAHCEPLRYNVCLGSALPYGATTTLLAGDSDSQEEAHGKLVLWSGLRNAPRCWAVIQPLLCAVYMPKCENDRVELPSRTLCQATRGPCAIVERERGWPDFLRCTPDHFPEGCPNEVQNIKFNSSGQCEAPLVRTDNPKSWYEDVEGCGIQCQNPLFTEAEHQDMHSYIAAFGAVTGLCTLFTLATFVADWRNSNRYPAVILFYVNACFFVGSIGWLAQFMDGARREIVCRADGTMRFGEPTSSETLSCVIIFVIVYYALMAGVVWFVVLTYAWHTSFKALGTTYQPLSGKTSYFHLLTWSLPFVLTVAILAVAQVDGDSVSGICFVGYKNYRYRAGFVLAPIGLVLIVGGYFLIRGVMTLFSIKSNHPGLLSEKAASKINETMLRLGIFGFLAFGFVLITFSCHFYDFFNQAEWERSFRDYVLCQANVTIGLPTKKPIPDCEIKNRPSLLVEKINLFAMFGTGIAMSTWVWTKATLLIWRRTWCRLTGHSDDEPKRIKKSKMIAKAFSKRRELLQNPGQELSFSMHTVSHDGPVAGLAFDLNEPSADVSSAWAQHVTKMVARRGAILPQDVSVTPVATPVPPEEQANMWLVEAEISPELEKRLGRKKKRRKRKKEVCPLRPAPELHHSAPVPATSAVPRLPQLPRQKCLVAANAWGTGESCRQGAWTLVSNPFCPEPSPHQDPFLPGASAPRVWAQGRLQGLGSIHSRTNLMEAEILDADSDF

Structure (SMILES)	basal FRET of mSmo-CFPN/mSmoYFPN (N-termini) (mouse Smo)	Shh-induced decrease in FRET from mSmo-CFPL2YFPC (FRETL2C) (mouse Smo)	Shh-induced increase in FRET between mSmo-CFPC and mSmo-YFPC (FRETC) (mouse Smo)	stability (Stability remarks)	Ptch1 mRNA level [2]	Gli1 mRNA level [2]	concentration at which inhibition of Hh signaling starts to show [1]	concentration that blocks/abolishes Gli:GFP expression [1]	off-target toxicity (zebrafish embryos)	further results
CNC1CCC(N(Cc2cccc(-c3ccncc3)c2)C(=O)c2sc3ccccc3c2Cl)CC1 (stereo not drawn) [SAG, reference compound]	not affected	–	–	–	–	–	–	–	–	FRETC (mouse Smo; 100 nM, independent of Shh): increase; FRETL2C (mouse Smo; 100 nM, independent of Shh): decrease; effect on Gli:GFP expression ([1]; same condition as SANT19, approximately 80 μM): no effect
C=CCN[C@H]1CC[C@H](N(Cc2cccc(-c3ccncc3)c2)C(=O)c2sc3ccccc3c2Cl)CC1 [SANT74, N-(trans-4-(allylamino)cyclohexyl)-3-chloro-N-(3-(pyridin-4-yl)benzyl)benzo[b]thiophene-2-carboxamide]	not affected	blocked	blocked	relatively stable	reduced	reduced	5 µM	20 µM	no obvious off-target toxicity	intersegmental blood vessels (ISV) (zebrafish embryos; 20 μM, Flk:GFP transgenic zebrafish): significantly reduced; insulin:GFP cells (zebrafish embryos; 20 μM, insulin:GFP transgenic zebrafish): significantly reduced; effect on sprouting of ISV (zebrafish embryos; added after 24 hpf): no longer had any effect; somite phenotype (zebrafish embryos; added for 4 hours before 21 hpf): induce U shape somite formation; sprouting of ISV (zebrafish embryos; added upon fertilization, washed away before 17 hpf): could occur normally; concentration at which embryos no longer developed any extended ISVs (zebrafish embryos; dose dependent inhibition of angiogenesis): ≥ 20 µM; circulation by microangiographic analysis (zebrafish embryos; embryos with defective ISVs): lacked circulation
CCCN[C@H]1CC[C@H](N(Cc2cccc(-c3ccncc3)c2)C(=O)c2sc3ccccc3c2Cl)CC1 [SANT75, 3-chloro-N-(trans-4-(propylamino)cyclohexyl)-N-(3-(pyridin-4-yl)benzyl)benzo[b]thiophene-2-carboxamide]	not affected	blocked	blocked	relatively stable	reduced	reduced	5 µM	20 µM	no obvious off-target toxicity	IC50 (Shh-LIGHT2 cells; read-out: IC50): 20 nM; BODIPY-cyclopamine/Smo binding (mouse Smoothened): effectively abrogate
CC1=C2C[C@H]3[C@@H](CC=C4C[C@@H](O)CC[C@@]43C)[C@@H]2CC[C@]12O[C@@H]1C[C@H](C)CN[C@H]1[C@H]2C [cyclopamine, reference compound]	–	–	–	–	–	–	–	–	–	IC50 (Shh-LIGHT2 cells): 300 nM; Gli:GFP expression upon treatment ([1]; transgenic embryos, concentration not given): abolished
